biological target: human CCR2 (Homo sapiens, UniProt P41597); test: CCR2 functional calcium assay (FLIPR calcium flux, hMCP-1 challenge); assay type: cell-based; set-up: expressed in transfected cells; host or cells: HEK293 EBNA cells; conditions: HEK293 EBNA cells transfected with human CCR2, hMCP-1 challenge; read-out: Functional CCR2 fKi
Excerpt: The CCR2 receptor couples through the Gi/Gq signaling pathway and results in activation of calcium mobilization. The functional activity of test compounds was routinely tested by measuring the ability of compounds to antagonize CCR2 activity in a dose dependent manner, in HEK293 EBNA cells transfected with the human CCR2 receptor (hMCP-1 challenge), using a calcium flux Fluorescent Imaging Plate Reader FLIPR assay. Non-transfected HEK293 EBNA cells were used as control of non-specific response.
Briefly, test compounds were dissolved in dimethyl sulfoxide (DMSO) to a concentration of 10 mM and stored in matrix screenmate racks. The required amount of compound was transferred to 96-well compound plates on the day of assay and diluted in assay buffer to the required final concentration; dose-response measurements were assayed by making 1:3 serial dilutions to produce 10 point curves. The compounds were then transferred to 384-well assay plates ready for use. Top concentrations were adjusted depending on the potency of the compounds with a typical concentration range of 30 μM to 0.5 nM being used. The assay buffer used was HBSS buffer supplemented with 20 mM HEPES and 0.1% BSA, pH7.4. The loading/wash buffers were the same as the assay buffer.
Cells were suspended in culture medium at a density of 10000 cells/50 μl (the cell culture media composition was DMEM high glucose supplemented with 10% dialyzed FBS, 250 μg/ml Geneticin, and 400 μg/ml Hygromycin B), transferred to 384-well black/clear Costar plates (Costar #3712) (50 μl/well) and incubated at 37° C., in a 5% CO2/95% air humidified incubator for 16 h. The cells were washed with assay buffer at 37° C. using the Biotek ELx 405, washing 3 times, leaving 20 μl buffer in the well. 20 μl Fluo-4 (Fluo-4 stock solution (1 mM) was prepared by dissolving one vial of Fluo-4 (50 μg) in 45 μl of pluronic acid (240 mg/ml in DMSO). This stock solution of Fluo-4 was then diluted 250 times with loading buffer to give a Fluo-4 concentration of 4 μM. The dye solution (used within 2 h and kept away from light) was added to each well using a repeating multichannel pipette; the cells were then incubated at 37° C. for 60 min. Following the incubation, cells were washed in assay buffer at 37° C. using the Biotek ELx 405, washing 3 times, leaving 40 μl in each well and incubated for 10 min at 37° C. before use. A combined agonist/antagonist protocol was used. Compound (antagonist) was added to the cell plate using the FLIPR. Basal fluorescence was recorded every second for 10 seconds prior to compound addition (10 μl) and fluorescence recorded every second for 1 minute then every 6 seconds for a further 1 minute. Agonist (MCP-1) was then added using the FLIPR and fluorescence recorded as described above.
The positive control (agonist) was human recombinant MCP-1 which was stored as a stock concentration of 10 μM in distilled water and stored at −20° C. (maximal response: 30 nM; EC50 dose: 3-5 nM). The reference compound (antagonist) was RS102895 which was used as a 10 mM DMSO solution and stored at −20° C.
FLIPR responses were measured as peak minus basal fluorescence intensity and were expressed as a percentage of EC50 MCP-1 challenge. Curve-fitting and parameter estimation were carried out using GraphPad Prism 4.0 (GraphPad Software Inc., San Diego, Calif.).

Chain of human CCR2 (P41597 whole entry): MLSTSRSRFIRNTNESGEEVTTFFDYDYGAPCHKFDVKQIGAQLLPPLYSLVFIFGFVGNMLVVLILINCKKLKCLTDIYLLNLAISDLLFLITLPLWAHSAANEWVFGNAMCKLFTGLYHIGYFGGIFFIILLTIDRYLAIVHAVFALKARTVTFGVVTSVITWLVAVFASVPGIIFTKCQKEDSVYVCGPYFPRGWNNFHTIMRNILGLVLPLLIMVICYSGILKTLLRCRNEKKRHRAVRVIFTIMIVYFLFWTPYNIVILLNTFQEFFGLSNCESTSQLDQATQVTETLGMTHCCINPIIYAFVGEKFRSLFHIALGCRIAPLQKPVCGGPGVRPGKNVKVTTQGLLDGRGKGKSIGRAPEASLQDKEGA

`Oc1c(Cc2cc(Cl)cc(Cl)c2)c(C2CC2)nc2ccnn12` [Example 34, 5-Cyclopropyl-6-[(3,5-dichlorophenyl)-methyl]pyrazolo[1,5-a]pyrimidin-7-ol] and `Oc1c(Cc2ccc(Cl)c(Cl)c2)c(C2CC2)nc2ccnn12` [Example 30, 5-Cyclopropyl-6-[(3,4-dichlorophenyl)-methyl]pyrazolo[1,5-a]pyrimidin-7-ol] cannot be ordered by Ki: < 10 nM for the first, < 10 nM for the second.

`CCc1nc2ccnn2c(O)c1Cc1ccc(Cl)c(Cl)c1` [Example 15, 6-[(3,4-Dichlorophenyl)methyl]-5-ethylpyrazolo[1,5-a]pyrimidin-7-ol] and `CCCc1nc2ccnn2c(O)c1Cc1ccc(Cl)c(Cl)c1` [Example 17, 6-[(3,4-Dichlorophenyl)methyl]-5-propyl-pyrazolo[1,5-a]pyrimidin-7-ol] cannot be ordered by Ki: < 10 nM for the first, < 10 nM for the second.

First: COCCNC(=O)c1cnn2c(O)c(Cc3cccc(Cl)c3)c(C)nc12 [Example 116, 6-[(3-Chlorophenyl)methyl]-7-hydroxy-N-(2-methoxyethyl)-5-methylpyrazolo[1,5-a]-pyrimidine-3-carboxamide]
Second: COCCNC(=O)c1cnn2c(O)c(Cc3ccc(Cl)cc3)c(C)nc12 [Example 107, 6-[(4-Chlorophenyl)methyl]-7-hydroxy-N-(2-methoxyethyl)-5-methylpyrazolo[1,5-a]-pyrimidine-3-carboxamide]
The Ki of the first is higher: 100 to 1000 nM for the first, 10 to 100 nM for the second.

Compared with `COCc1nc2ccnn2c(O)c1Cc1ccc(Cl)c(Cl)c1` [Example 53, 6-[(3,4-Dichlorophenyl)methyl]-5-(methoxymethyl)pyrazolo[1,5-a]pyrimidin-7-ol], `COCc1nc2ccnn2c(O)c1Cc1ccc(Cl)c(F)c1` [Example 52, 6-[(4-Choro-3-fluorophenyl)methyl]-5-(methoxymethyl)pyrazolo[1,5-a]pyrimidin-7-ol] is higher in Ki: < 10 nM for the first, 10 to 100 nM for the second.

First: Oc1c(Cc2ccc(C(F)(F)F)cc2)c(C2CC2)nc2ccnn12 [Example 23]
Second: Cc1nc2ccnn2c(O)c1Cc1ccc(C(F)(F)F)cc1 [Example 2, 5-Methyl-6-{[4-(trifluoromethyl)phenyl]methyl}pyrazolo[1,5-a]pyrimidin-7-ol]
The Ki of the first is lower: < 10 nM for the first, 100 to 1000 nM for the second. The first binds more tightly here.

`Oc1c(Cc2ccc(F)c(C(F)(F)F)c2)c(C2CC2)nc2ccnn12` [Example 31, 5-Cyclopropyl-6-{[4-fluoro-3-(trifluoro-methyl)phenyl]methyl}pyrazolo[1,5-a]-pyrimidin-7-ol] and `Oc1c(Cc2ccc(F)c(F)c2)c(C2CC2)nc2ccnn12` [Example 24, 5-Cyclopropyl-6-[(3,4-difluorophenyl)-methyl]pyrazolo[1,5-a]pyrimidin-7-ol] cannot be ordered by Ki: < 10 nM for the first, < 10 nM for the second.

First: CC(C)c1nc2ccnn2c(O)c1Oc1ccc(Br)cc1 [Example 66, 6-(4-Bromophenoxy)-5-(propan-2-yl)-pyrazolo[1,5-a]pyrimidin-7-ol]
Second: Cc1nc2ccnn2c(O)c1Oc1cccc(F)c1 [Example 5, 6-(3-Fluorophenoxy)-5-methylpyrazolo[1,5-a]pyrimidin-7-ol]
The Ki of the first is lower: < 10 nM for the first, 10 to 100 nM for the second. The first binds more tightly here.

`CCC(=O)c1nc2ccnn2c(O)c1Cc1ccc(Cl)c(Cl)c1` [Example 97, 1-{6-[(3,4-Dichlorophenyl)methyl]-7-hydroxypyrazolo[1,5-a]pyrimidin-5-yl}propan-1-one] and `CC(=O)c1nc2ccnn2c(O)c1Cc1ccc(Cl)c(Cl)c1` [Example 96, 1-{6-[(3,4-Dichlorophenyl)methyl]-7-hydroxypyrazolo[1,5-a]pyrimidin-5-yl}ethan-1-one] fall in the same range of Ki: 10 to 100 nM for the first, 10 to 100 nM for the second.

`Cc1nc2c(C(=O)NCCOc3ccccc3)cnn2c(O)c1Cc1ccccc1` [Example 103, 6-Benzyl-7-hydroxy-5-methyl-N-(2-phenoxyethyl)pyrazolo[1,5-a]pyrimidine-3-carboxamide] and `Cc1ccc(Cc2c(C)nc3c(C(=O)NCCc4ccccn4)cnn3c2O)cc1` [Example 111, 7-Hydroxy-5-methyl-6-[(4-methylphenyl)-methyl]-N-[2-(pyridin-2-yl)ethyl]pyrazolo-[1,5-a]pyrimidine-3-carboxamide] fall in the same range of Ki: 100 to 1000 nM for the first, 100 to 1000 nM for the second.

Compared with `Cc1nc2ccnn2c(O)c1Nc1cccc(F)c1` [Example 78, 6-[(3-Fluorophenyl)amino]-5-methylpyrazolo[1,5-a]pyrimidin-7-ol], `CC(=O)c1nc2ccnn2c(O)c1Cc1cccc(F)c1` [Example 94, 1-{6-[(3-Fluorophenyl)methyl]-7-hydroxypyrazolo[1,5-a]pyrimidin-5-yl}ethan-1-one] is lower in Ki: 100 to 1000 nM for the first, 10 to 100 nM for the second. The second binds more tightly here.

`Oc1c(Cc2ccc(F)c(F)c2)c(C2CCC2)nc2ccnn12` [Example 45, 5-Cyclobutyl-6-[(3,4-difluorophenyl)-methyl]pyrazolo[1,5-a]pyrimidin-7-ol] and `Oc1c(Cc2ccc(F)c(Cl)c2)c(C2CC2)nc2ccnn12` [Example 28, 6-[(3-Chloro-4-fluorophenyl)methyl]-5-cyclopropylpyrazolo[1,5-a]pyrimidin-7-ol] cannot be ordered by Ki: < 10 nM for the first, < 10 nM for the second.

`CNC(=O)c1cnn2c(O)c(Cc3ccc(Cl)cc3)c(C)nc12` [Example 99, 6-[(4-Chlorophenyl)methyl]-7-hydroxy-N,5-dimethylpyrazolo[1,5-a]pyrimidine-3-carboxamide] and `C=CCNC(=O)c1cnn2c(O)c(Cc3ccc(Cl)cc3)c(C)nc12` [Example 106, 6-[(4-Chlorophenyl)methyl]-7-hydroxy-5-methyl-N-(prop-2-en-1-yl)pyrazolo[1,5-a]-pyrimidine-3-carboxamide] fall in the same range of Ki: 100 to 1000 nM for the first, 100 to 1000 nM for the second.

First: Cc1nc2c(Br)cnn2c(O)c1Cc1ccc(Cl)cc1 [Example 58, 3-Bromo-6-[(4-chlorophenyl)methyl]-5-methylpyrazolo[1,5-a]pyrimidin-7-ol]
Second: Cc1nc2c(C#N)cnn2c(O)c1Cc1ccc(Cl)cc1 [Example 59, 6-[(4-Chlorophenyl)methyl]-7-hydroxy-5-methylpyrazolo[1,5-a]pyrimidine-3-carbonitrile]
The Ki of the first is lower: 10 to 100 nM for the first, 100 to 1000 nM for the second.

`CC(C)c1nc2ccnn2c(O)c1Cc1cc(Cl)cc(Cl)c1` [Example 42, 6-[(3,5-Dichlorophenyl)methyl]-5-(propan-2-yl)pyrazolo[1,5-a]pyrimidin-7-ol] and `CC(C)c1nc2ccnn2c(O)c1Cc1cc(F)cc(Cl)c1` [Example 39, 6-[(3-Chloro-5-fluorophenyl)methyl]-5-(propan-2-yl)pyrazolo[1,5-a]pyrimidin-7-ol] cannot be ordered by Ki: < 10 nM for the first, < 10 nM for the second.

Compared with `Cc1nc2c(C(=O)NC[C@H]3CCCO3)cnn2c(O)c1Cc1ccc(Cl)cc1` [Example 101, 6-[(4-Chlorophenyl)methyl]-7-hydroxy-5-methyl-N-[(2R)-oxolan-2-ylmethyl]-pyrazolo[1,5-a]pyrimidine-3-carboxamide], `Oc1c(Cc2ccc(Cl)cc2)c(C2CCC2)nc2ccnn12` [Example 44, 6-[(4-Chlorophenyl)methyl]-5-cyclobutyl-pyrazolo[1,5-a]pyrimidin-7-ol] is lower in Ki: 100 to 1000 nM for the first, < 10 nM for the second. The second binds more tightly here.

`CC(C)c1nc2ccnn2c(O)c1Cc1cc(F)c(F)c(F)c1` [Example 36, 5-(Propan-2-yl)-6-[(3,4,5-trifluorophenyl)-methyl]pyrazolo[1,5-a]pyrimidin-7-ol] and `CC(C)c1nc2ccnn2c(O)c1Cc1ccc(F)c(F)c1` [Example 35, 6-[(3,4-Difluorophenyl)methyl]-5-(propan-2-yl)pyrazolo[1,5-a]pyrimidin-7-ol] cannot be ordered by Ki: < 10 nM for the first, < 10 nM for the second.

`Oc1c(Cc2cc(F)cc(F)c2)c(C2CC2)nc2ccnn12` [Example 25, 5-Cyclopropyl-6-[(3,5-difluorophenyl)-methyl]pyrazolo[1,5-a]pyrimidin-7-ol] and `CC(C)OC(=O)c1nc2ccnn2c(O)c1Cc1ccc(F)c(Cl)c1` [Example 87, Propan-2-yl6-[(3-chloro-4-fluorophenyl)methyl]-7-hydroxypyrazolo[1,5-a]pyrimidine-5-carboxylate] cannot be ordered by Ki: < 10 nM for the first, < 10 nM for the second.

With `CC(C)OC(=O)c1nc2ccnn2c(O)c1Cc1cccc(Cl)c1` [Example 82, Propan-2-yl 6-[(3-chlorophenyl)methyl]-7-hydroxypyrazolo[1,5-a]pyrimidine-5-carboxylate] the Ki was < 10 nM.

Reference: patent publication US20130252951A1, “7-HYDROXY-PYRAZOLO[1,5-A] PYRIMIDINE COMPOUNDS AND THEIR USE AS CCR2 RECEPTOR ANTAGONISTS” (Proximagen Limited, priority 2010, published 2013)
